According to patent US6955907B1, “Alkaline, protease VapK suitable for laundry detergent, VapK gene, recombinant expression vector, and transformed microorganisms” (priority 1999, dated 2005):
Entries after “also recorded” stand apart in the source; their conditions may differ.

Experiments:
[1] = system: protease VapK; test: Effects of inhibitors on the activity of the protease VapK; format: biochemical, Vibrio metschnikovii KS1
Procedure: (§1) The activity of the alkaline protease was determined by the method of Yanagida et al with minor modifications. The reaction mixture was prepared by mixing 100 mM sodium carbonate solution with the supernatant formed after centrifuging the culture broth at 6,000 rpm for 15 minutes. 0.5 ml of the fermentation broth was mixed with 2.5 ml of 1% prewarmed casein solution in 100 mM sodium carbonate buffer (pH 10.5). The resulting mixture was incubated at 37° C. for 10 minutes. The reaction was terminated by adding a solution consisting 0.22 M trichloroacetic acid, 0.22 M sodium acetate and 0.22 M acetic acid. The reaction mixture was placed on ice for 10 minutes followed by centrifugation. 1 ml of the supernatant was mixed with 9 ml of distilled water. The optical density (O.D.) was measured at 280 nm. The result is indicated as unit. One unit of the enzyme is defined as the amount of protein which produces an increase of 0.1 absorbance unit under the assay conditions.

[2] = system: protease VapK; test: Resistance of the protease VapK to surfactants (N-succinyl-ala-ala-pro-phe-p-nitroanilide substrate); format: biochemical, Vibrio metschnikovii KS1; settings: for Relative Residual Activity (%): 25° C. for 25 minutes, relative to activity without surfactant
Procedure: In addition, the resistance of the protease VapK to various surfactants was tested. The enzyme sample was appropriately diluted in distilled water. The diluted solution was mixed with each surfactant in the same ratio. The mixture was reacted at 25° C. for 25 minutes. A substrate solution of 5 mM N-succinyl-ala-ala-pro-phe-p-nitroanilide in 1 M tris-HCl, pH 9.0 was added to the reaction mixture in the ratio of 1 to 10. The reaction mixture was reacted at 25° C. for 30 minutes. The optical density of the reaction mixture was measured at 410 nm to determine the enzymatic activity of the protease VapK.

[3] = system: casein; test: Alkaline protease activity of culture broth (casein method of Yanagida et al, modified); format: biochemical
Procedure: as §1
E. coil HB101 harboring the plasmid pSB1 was cultured in an LB medium. The culture broth was recovered and subjected to electrophoresis. As a result (FIG. 8), the expressed protease VapK was detected at the 27 kDa band. In addition, the proteolytic activity of the enzyme was measured.

[4] = format: biochemical
Excerpt: It can be seen from the above results that the vapk gene contained in the recombinant plasmid pSB1 was expressed in E. coli HB 101 and the expressed protease VapK was secreted extracellularly. […] (FIG. 9).

[5] = inhibitor 1 mM, pre-reacted 20 minutes at 4° C.
[6] = inhibitor 1 mM, pre-reacted 20 minutes at 20° C.

O=C(O)CN(CCN(CC(=O)O)CC(=O)O)CC(=O)O [EDTA, ethylenediamine tetraacetic acid]
Relative Activity (%) ([1]; inhibitor 100 mM, pre-reacted 20 minutes at 4° C.): 86% | Relative Activity (%) ([1]; inhibitor 100 mM, pre-reacted 20 minutes at 20° C.): 100%

O=C(O)CN(CCOCCOCCN(CC(=O)O)CC(=O)O)CC(=O)O [EGTA, ethyleneglycol-bis(β-aminoethyl ether)N,N,N′,N′-tetraacetic acid]
Relative Activity (%) [1, 5]: 100% | Relative Activity (%) [1, 6]: 100%

N[C@@H](CS)C(=O)O [L-cysteine]
Relative Activity (%) [1, 5]: 99% | Relative Activity (%) [1, 6]: 100%

O=S(=O)(F)Cc1ccccc1 [PMSF, phenylmethanesulfonyl fluoride]
inhibition of the enzymatic activity of the protease VapK (in words) [1]: inhibited | Relative Activity (%) [1, 5]: 6% | Relative Activity (%) [1, 6]: 13%

CCCCCCCCCCCCOS(=O)(=O)[O-].[Na+] [SDS, sodium dodecyl sulfate]
Relative Residual Activity (%) ([2]; surfactant 1000 ppm): >100% | Relative Residual Activity (%) ([2]; surfactant 1500 ppm): <70%

Polyoxyethylene Alkylether [Polyoxyethylene Alkylether (EO = 15 mol)]
Relative Residual Activity (%) ([2]; surfactant 30000 ppm): >100%

Sodium-α-olefin sulfonate [AOS]
Relative Residual Activity (%) ([2]; surfactant 10000 ppm): >100% | Relative Residual Activity (%) ([2]; surfactant 15000 ppm): >70%

B1: VapK: alkaline serine protease of 27 kDa produced by Vibrio metschnikovii KS1, amino acid sequence SEQ ID NO. 1 (protein, listed as Vibrio metschnikovii)
chain: MFKKNVNRTVLAGLLLPTSISLAIASQLKDQEVPSFTPSVAVENHQTEQRYFVTYVPGATSGPMRMSQNGLTETDFSLQKAADILSTQQVTVINHLESLHTSVVRVTPTQAKQLLDNADVAMIEVDPIRYLFDAEIEPYAQQTPYGIRMVQADQLSDVYAANRKVCVIDSGYLRNHVDLPSAGVTGSTFSGHGSWFTDGNGHGTHVAGTIVALDNNVGVVGVLPSGLVGLHNVKIFNDSGVWTRASDLIQAIQSCQSAGSHVVNMSLGGSQGSVTEQKPMRNFYQQGMLLVAAAGNSGNSGFSYPASYDAVVSVAAVNSSGNVANFSQFNSQVELSAPGVGVLSTGNNGGYLSYSGTSMASPHVAGVAALVWSHFPQCRPERIRQSLSQTALDRGAAGRDNFYGWGIVQARRAYNWLSRNGC
Activity (proteolytic activity of expressed Vap K) ([3]; Strain E. coli HB 101 harboring plasmid pSB1, LB medium culture broth): 30.3 unit/ml | Activity (proteolytic activity of expressed Vap K) ([3]; Strain Vibrio metschnikovii KS1, culture broth): 956.2 unit/ml | resistance / stability to surfactants (in words) ([2]; surfactants such as LAS, SDS, AOS, polyoxyethylene alkylether): very resistant; also recorded: high resistance; also recorded: very stable | influence of temperature on stability [4]: influenced slightly | pH of optimum activity [4]: 10.5 | stability over pH [4]: stability in the entire pH range | temperature of optimum activity [4]: 50 °C
